# Results published in PMC12010937, “Evaluation of FXR Activity in Pollutants Identified in Sewage Sludge and Subsequent in Vitro and in Vivo Characterization of Metabolic Effects of Triphenyl Phosphate” (Environmental Health Perspectives, 2025).
# “And” between values parts separate entries of the source, which are not always exact repeats. Equal entries are not always repeated. “Also recorded” adds a separate entry of the source.
# Legend:
# [1] = molecular target: T1, FXR (pCDNA3.1-hFXR, FXRE-luc) (Homo sapiens, UniProt Q96RI1); experiment: cell-based; format: cell-based
# T1 construct: host or cells: HEK 293T
# T1 sequence (Q96RI1 1-486): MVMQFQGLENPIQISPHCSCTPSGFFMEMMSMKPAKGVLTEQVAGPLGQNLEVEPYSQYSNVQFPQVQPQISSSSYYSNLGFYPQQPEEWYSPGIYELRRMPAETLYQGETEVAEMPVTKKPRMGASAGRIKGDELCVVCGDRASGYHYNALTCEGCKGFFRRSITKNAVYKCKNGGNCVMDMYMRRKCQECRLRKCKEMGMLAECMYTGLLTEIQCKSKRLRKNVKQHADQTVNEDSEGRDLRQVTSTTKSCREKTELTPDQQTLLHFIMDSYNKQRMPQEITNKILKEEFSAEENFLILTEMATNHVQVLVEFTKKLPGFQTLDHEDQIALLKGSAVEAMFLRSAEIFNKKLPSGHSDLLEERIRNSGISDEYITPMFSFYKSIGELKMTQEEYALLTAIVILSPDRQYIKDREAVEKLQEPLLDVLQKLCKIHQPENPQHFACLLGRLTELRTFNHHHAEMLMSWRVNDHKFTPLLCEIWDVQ
# [2] = test system: FXR target genes (SHP, NTCP, CYP7A1) in HepG2 cells; experiment: qPCR of FXR target genes in HepG2 cells; format: cell-based, human
# C57BL/6N mice = experiment: Serum ALT and AST activities; format: in vivo; details: for Serum ALT activity / Serum AST activity: individual mice
# Procedure: (§1) Male C57BL/6N mice (8 wk of age) were purchased from Beijing Vital River Laboratory Inc. and acclimated to the environment for 2 wk before they were used for experiments. The environment was maintained at 22°C, in a 12-h light/dark cycle with 50%–60% relative humidity and fed standard chow diets. Because the male mice are more sensitive to metabolic disease than female mice and the estrous cycle of female mice may induce variability to the metabolic phenotypes,[50] only male mice were used in this study. Animals were randomly assigned to control or TPHP treatment groups (five mice per group). Mice were exposed to corn oil (control) purchased from Sigma-Aldrich (C8267) or TPHP (dissolved in corn oil) at 10mg/kg or 50mg/kg body weight (BW) by daily oral gavage for 35 d. The administered volume was 5mL/kg BW. The TPHP corn oil solutions for administration were prepared by dissolving the TPHP in corn oil, and the solutions were stored at −20°C and freshly prepared each week. BW was measured every other day during the dosing period. At the end of experiments, the mice were anesthetized with isoflurane, then blood was collected from the retro-orbital sinus via orbital puncture, and then the mice were euthanized by cervical dislocation. The liver was isolated, weighted, and divided into three fractions: one fraction was fixed with 4% neutral-buffered formalin for Oil Red staining; another fraction was frozen in liquid nitrogen and stored at −80°C for the BA targeted analysis, lipidomic analysis, and qPCR analysis; the remaining fraction was embedded with 3% carboxymethylcellulose (CMC) for MSI analysis. The ileum was also isolated, weighted, and stored at −80°C for the BA targeted analysis and qRT-PCR analysis. Cecal contents were collected from the cecum of mice for the 16S rRNA gene sequencing analysis. Animal study protocols were approved by the Animal Care and Use Committee of Peking University (approval number: Urban-WanY-1).
# Blood samples collected from the mice were incubated in a 37°C water bath for 30 min and then incubated under 4°C for 5 h. After centrifuged at 5,000×g and 4°C for 5 min, the serums were aliquoted and stored at −80°C . The determination of serum alanine transaminase (ALT) and aspartate transaminase (AST) activities in the serum were determined using the commercial kits (E2021, E2023; Applygen).
# [3] = Body weight during exposure; format: in vivo, C57BL/6N mice; details: for Relative body weight / Body weight: individual mice
# Procedure: as §1
# PPARγ = test system: PPARγ; design: method as in PMID 34340181; details: in vitro assays and in silico molecular docking; cited from earlier work
# [4] = 10 μM TPHP + 50 μM CDCA, replicates
# [5] = TPHP-H: 50 mg/kg daily oral gavage 35 d
# [6] = TPHP-L: 10 mg/kg daily oral gavage 35 d
smiles,measurement,setting,value
"O=P(Oc1ccccc1)(Oc1ccccc1)Oc1ccccc1 [TPHP, triphenyl phosphate]",IC50,[1],27.4 µM
same,Relative luciferase activity (%),"[1]; 0.01 μM, dose-response, replicates",85.51% and 90.10% and 106.89%
same,Relative luciferase activity (%),"[1]; 0.1 μM, dose-response, replicates",104.74% and 89.81%
same,Relative luciferase activity (%),"[1]; 0.5 μM, dose-response, replicates",73.91% and 74.66%
same,Relative luciferase activity (%),"[1]; 1 μM, dose-response, replicates",77.48% and 70.96%
same,Relative luciferase activity (%),"[1]; 5 μM, dose-response, replicates",51.88% and 54.98% and 76.88%
same,Luciferase activity compared with DMSO control (in words),"[1]; 10 μM and 25 μM, in the presence of 50 μM CDCA, HEK 293T",significantly less luciferase activity; also recorded: lowest luciferase activity
same,Relative luciferase activity (%),"[1]; 10 μM compound in the presence of 50 μM CDCA, DMSO 0%, 50 μM CDCA 100%, HEK 293T, replicates",2.5% and 7.4% and 17.9%
same,Relative luciferase activity (%),"[1]; 10 μM, dose-response, replicates",46.34% and 52.21%
same,Relative luciferase activity (%),"[1]; 25 μM compound in the presence of 50 μM CDCA, DMSO 0%, 50 μM CDCA 100%, HEK 293T, replicates",-6.4% and -7.6% and -3.9%
same,Relative luciferase activity (%),"[1]; 25 μM, dose-response, replicates",2.58% and 9.91% and 5.01%
same,Relative luciferase activity (%),"[1]; 50 μM, dose-response, replicates",-21.44% and -22.90% and -18.55%
same,Rate of FXR inhibition at the maximum exposure concentration,"[1]; HEK 293T DLR assay, maximum exposure concentration",120.96%
same,activity at 0.1 µM,"[1]; HEK-293T, read-out: Relative luciferase activity (%), 0.1 μM, dose-response, replicates",87.5%
same,activity at 0.5 µM,"[1]; HEK-293T, read-out: Relative luciferase activity (%), 0.5 μM, dose-response, replicates",82.3%
same,activity at 1 µM,"[1]; HEK-293T, read-out: Relative luciferase activity (%), 1 μM, dose-response, replicates",63.9%
same,activity at 10 µM,"[1]; HEK-293T, read-out: Relative luciferase activity (%), 10 μM, dose-response, replicates",39.7%
same,"Effect on CDCA-induced expression changes of FXR target genes (SHP, NTCP, CYP7A1), in words",[2],attenuated the CDCA-induced expression changes
same,Relative mRNA expression level of CYP7A1,[2]; [4],1.85 fold changes and 1.10 fold changes and 1.48 fold changes
same,Relative mRNA expression level of NTCP,[2]; [4],1.11 fold changes and 0.92 fold changes and 0.94 fold changes
same,Relative mRNA expression level of SHP,[2]; [4],1.02 fold changes and 1.19 fold changes and 1.08 fold changes
same,Serum ALT vs control group (in words),C57BL/6N mice; TPHP exposure groups,significantly higher
same,Serum AST vs control group (in words),C57BL/6N mice; TPHP exposure groups,higher
same,Serum ALT activity,C57BL/6N mice; [5],14.85 and 21.35 and 16.29
same,Serum AST activity,C57BL/6N mice; [5],72.41 and 61.71 and 102.89
same,Serum ALT activity,C57BL/6N mice; [6],15.83 and 17.21 and 25.56
same,Serum AST activity,C57BL/6N mice; [6],84.28 and 74.46 and 60.21
same,Body weight vs control group (in words),"[3]; TPHP-L and TPHP-H groups, last week of 35 d exposure",significantly high BW
same,Relative body weight,"[3]; day0, TPHP-H group",100%
same,Relative body weight,"[3]; day0, TPHP-L group",100%
same,Relative body weight,"[3]; day2, TPHP-H group",100.00% and 95.33% and 100.77% and 93.99% and 94.87%
same,Relative body weight,"[3]; day2, TPHP-L group",100.70% and 96.31% and 97.06% and 97.18% and 97.32%
same,Relative body weight,"[3]; day4, TPHP-H group",97.19% and 93.33% and 101.54% and 92.93% and 92.67%
same,Relative body weight,"[3]; day4, TPHP-L group",97.89% and 93.62% and 95.96% and 97.58% and 94.25%
same,Relative body weight,"[3]; day6, TPHP-H group",97.59% and 92.00% and 101.92% and 90.46% and 91.58%
same,Relative body weight,"[3]; day6, TPHP-L group",98.24% and 94.30% and 94.12% and 97.18% and 94.25%
same,Relative body weight,"[3]; day8, TPHP-H group",98.39% and 93.00% and 103.85% and 92.23% and 93.41%
same,Relative body weight,"[3]; day8, TPHP-L group",98.59% and 94.30% and 95.59% and 96.37% and 95.40%
same,Relative body weight,"[3]; day10, TPHP-H group",98.39% and 92.67% (2×) and 103.85% and 90.46%
same,Relative body weight,"[3]; day10, TPHP-L group",98.24% and 94.30% and 95.59% and 95.97% and 94.25%
same,Body weight,"[3]; day12, TPHP-H group",24.8 g and 28.9 g and 27.4 g and 26.1 g (2×)
same,Relative body weight,"[3]; day12, TPHP-H group",99.60% and 96.33% and 105.38% and 92.23% and 95.60%
same,Body weight,"[3]; day12, TPHP-L group",28.0 g and 28.2 g and 26.3 g and 24.2 g and 24.9 g
same,Relative body weight,"[3]; day12, TPHP-L group",98.59% and 94.63% and 96.69% and 97.58% and 95.40%
same,Body weight,"[3]; day14, TPHP-H group",24.9 g and 29.3 g and 27.7 g and 25.9 g and 26.3 g
same,Relative body weight,"[3]; day14, TPHP-H group",100.00% and 97.67% and 106.54% and 91.52% and 96.34%
same,Body weight,"[3]; day14, TPHP-L group",28.7 g and 28.5 g and 26.4 g and 23.8 g and 25.1 g
same,Relative body weight,"[3]; day14, TPHP-L group",101.06% and 95.64% and 97.06% and 95.97% and 96.17%
same,Body weight,"[3]; day16, TPHP-H group",25.2 g and 29.6 g and 28.2 g and 26.6 g and 26.7 g
same,Relative body weight,"[3]; day16, TPHP-H group",101.20% and 98.67% and 108.46% and 93.99% and 97.80%
same,Body weight,"[3]; day16, TPHP-L group",28.9 g (2×) and 27.2 g and 24.0 g and 25.4 g
same,Relative body weight,"[3]; day16, TPHP-L group",101.76% and 96.98% and 100.00% and 96.77% and 97.32%
same,Body weight,"[3]; day18, TPHP-H group",25.6 g and 30.6 g and 28.3 g and 26.9 g and 27.4 g
same,Relative body weight,"[3]; day18, TPHP-H group",102.81% and 102.00% and 108.85% and 95.05% and 100.37%
same,Body weight,"[3]; day18, TPHP-L group",29.0 g and 29.3 g and 27.4 g and 24.4 g and 25.6 g
same,Relative body weight,"[3]; day18, TPHP-L group",102.11% and 98.32% and 100.74% and 98.39% and 98.08%
same,Body weight,"[3]; day20, TPHP-H group",25.6 g and 30.4 g and 28.2 g and 27.6 g (2×)
same,Body weight,"[3]; day20, TPHP-L group",29.6 g and 30.1 g and 27.7 g and 25.0 g and 26.0 g
same,Body weight,"[3]; day22, TPHP-H group",25.7 g and 30.4 g and 27.7 g and 27.6 g and 28.0 g
same,Body weight,"[3]; day22, TPHP-L group",29.5 g and 29.1 g and 27.8 g and 25.2 g and 26.1 g
same,Body weight,"[3]; day24, TPHP-H group",26.2 g and 30.9 g and 27.9 g and 28.0 g and 28.4 g
same,Body weight,"[3]; day24, TPHP-L group",29.9 g and 30.1 g and 28.1 g and 25.1 g and 26.4 g
same,Body weight,"[3]; day26, TPHP-H group",26.8 g and 31.6 g and 28.0 g and 27.8 g and 28.5 g
same,Body weight,"[3]; day26, TPHP-L group",30.2 g and 31.0 g and 28.7 g and 25.9 g and 26.7 g
same,Body weight,"[3]; day28, TPHP-H group",27.0 g and 31.6 g and 27.9 g and 28.1 g and 28.9 g
same,Body weight,"[3]; day28, TPHP-L group",30.1 g and 31.3 g and 28.7 g and 25.4 g and 26.8 g
same,Body weight,"[3]; day30, TPHP-H group",27.3 g and 32.3 g and 28.7 g and 28.3 g and 29.8 g
same,Body weight,"[3]; day30, TPHP-L group",29.9 g and 31.6 g and 29.4 g and 26.2 g and 27.1 g
same,PPARγ activity reported (in words),PPARγ,agonists
